In one test the target is GAL^BD-PRNHR-GAL^AD (Homo sapiens, UniProt P06401). The class given is cell-based, yeast. Conditions: control strain, FIG. 4.
The target in test [1] is GAL4^AD-HIV integrase (1-210 a.a.) and GAL4^BD-PR^LBD-INF5 (Homo sapiens, UniProt P06401). Kind of test: steroid release two hybrid yeast LacZ assay (CUG fluorescence). It is filed as cell-based. Conditions: strain expressing integrase fused to GAL4^AD and the interacting peptide.
Test [2] concerns the target HIV integrase (1-210 aa) and the peptide LYETILILLFLDVDT (SEQ ID NO:7) (Human immunodeficiency virus type 1 group M subtype B, UniProt P04585, G1270S/R1274K). The class given is cell-based. To be noted: yeast screening strain.
A further test addresses HIV integrase (Human immunodeficiency virus type 1 group M subtype B, UniProt P04585). Kind of test: biochemical. It is filed as binding.
Test [3] has as its target T1, GAL4^AD control (pVT 702, GAL4 activation domain alone).
T1 construct: also called pADH-GAL^AD base vector
T1 chain: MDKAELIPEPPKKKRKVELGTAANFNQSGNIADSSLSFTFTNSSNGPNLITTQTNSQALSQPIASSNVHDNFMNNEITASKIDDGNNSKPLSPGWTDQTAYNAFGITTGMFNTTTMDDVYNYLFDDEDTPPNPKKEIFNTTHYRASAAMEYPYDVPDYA
Kind of test: steroid release yeast two-hybrid, LacZ reporter.

Where no end group is shown, it is not given here.

In the case of `CC(=O)[C@H]1CC[C@H]2[C@@H]3CCC4=CC(=O)CC[C@]4(C)[C@H]3CC[C@]12C` [progesterone], the signal-to-background at GAL^BD-PRNHR-GAL^AD is ~100; in test [2] (8 μM progesterone), ~4. In addition, in test [1], the “signal (RFU)” value is on record as “increase in signal”. For the same molecule, in test [2] (FIG. 3 dose response), the expression of beta-galactosidase result is listed as “stimulated expression of beta-galactosidase”.
By Kd is commonly meant the constant that tells how readily two partners part at equilibrium. Higher therefore signals a looser complex. Take “LYETILILLFLDVDT [SEQ ID NO:7, LYETILILLFLDVDT]”: the Kd on HIV integrase is ~5 µM.

B1: GAL4^BD-PR^LBD-INF5 hybrid protein (GAL4 DNA binding domain fused to the progesterone receptor ligand binding domain and the HIV integrase inhibitory peptide … (other)
chain: MKLLSSIEQACDICRLKKLKCSKEKPKCAKCLKNNWECRYSPKTKRSPLTRAHLTEVESRLERLEQLFLLIFPREDLDMILKMDSLQDIKALLTGLFVQDNVNKDAVTDRLASVETDMPLTLRQHRISATSSSEESSNKGQRQLTVSPVLQYPALTMIQLIPPLINLLMSIEPDVIYAGHDNTKPDTSSSLLTSLNQLGERQLLSVVKWSKSLPGFRNLHIDDQITLIQYSWMSLMVFGLGWRSYKHVSGQMLYFAPDLILNEQRMKESSFYSLCLTMWQIPQEFVKLQVSQEEFLCMKVLLLLNTIPLEGLRSQTQFEEMRSSYIRELIKAIGLRQKGVVSSSQRFYQLTKLLDNLHDLVKQLHLYCLNTFIQSRALSVEFPEMMSEVIAAQLPKILAGMVKPLLFHKALYETILILLFLDVDT
notes: also called GAL4^BD-PR^LBD-IN5
In the case of B1, the binding result in test [3] is listed as “no binding”.

The values are drawn from US20130035255A1, “CONTROLLED RELEASE HYBRID SYSTEMS” (priority 2010, published 2013).
